Experimental data published in US20240279202A1 (NURIX THERAPEUTICS, INC., priority 2021, published 2024).

Molecular target: T1, ITK (Mus musculus, UniProt Q03526)
T1 construct: mice were sacrificed and splenocytes were isolated and used to prepare protein lysates; from tissue; host or cells: mouse splenocytes (spleen) after oral dosing
T1 sequence (Q03526 1-625): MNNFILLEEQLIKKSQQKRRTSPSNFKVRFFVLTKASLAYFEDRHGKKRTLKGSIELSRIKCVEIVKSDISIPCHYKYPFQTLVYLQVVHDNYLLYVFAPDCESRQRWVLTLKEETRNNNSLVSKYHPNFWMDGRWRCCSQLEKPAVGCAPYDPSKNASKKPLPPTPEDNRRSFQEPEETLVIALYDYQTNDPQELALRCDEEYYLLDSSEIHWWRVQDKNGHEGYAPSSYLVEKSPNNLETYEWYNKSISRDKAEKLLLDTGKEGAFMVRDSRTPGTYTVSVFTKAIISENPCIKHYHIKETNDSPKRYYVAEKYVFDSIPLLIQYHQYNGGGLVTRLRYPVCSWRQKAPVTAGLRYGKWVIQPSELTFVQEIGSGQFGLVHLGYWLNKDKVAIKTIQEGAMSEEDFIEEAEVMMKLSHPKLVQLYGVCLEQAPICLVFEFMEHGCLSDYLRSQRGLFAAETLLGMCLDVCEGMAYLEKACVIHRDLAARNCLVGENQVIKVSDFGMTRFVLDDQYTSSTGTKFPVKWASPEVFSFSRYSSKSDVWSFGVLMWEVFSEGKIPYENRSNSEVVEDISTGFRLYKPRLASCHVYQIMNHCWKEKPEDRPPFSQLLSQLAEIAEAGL
Assay: Mouse PD assay for ITK degradation (Western blot, splenocytes after oral administration)
Assay type: in vivo
Details: for ITK (%) 90 mpk PO, 6 h: percent ITK remaining in mouse splenocytes relative to vehicle
Summary of the method: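 Mice dosed orally, some compounds at 90 mg/kg; splenocytes harvested after 6 hours (some 24 hours). ITK measured by Western blot of equal-protein lysates, normalized to actin. Values are % ITK remaining relative to vehicle-control mean.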

[1] = mice, oral, splenocytes, Western blot, 6 hours

Row | SMILES | ITK degradation in vivo at 6 hours (FIG. 3A, FIG. 4A) [1] | ITK degradation in vivo at 24 hours (FIG. 3A, FIG. 4A) (mice, oral, splenocytes, Western blot, 24 hours) | ITK (%) 90 mpk PO, 6 h [%] | ITK degradation in vivo at 6 hours (FIG. 2) (mice, 90 mg/kg PO, splenocytes, Western blot, 6 hours)
1 | C[C@@H](C(=O)N(C)c1ccc2cc(-c3n[nH]c4c3C[C@@H]3C(F)(F)[C@]3(C)C4)[nH]c2c1)N1CCN(CC2CCN(c3ccc(N4CCC(=O)NC4=O)cn3)CC2)CC1 [Compound 18, (S)—N-(2-((4aS,5aR)-5,5-difluoro-5a-methyl-1,4,4a,5,5a,6-hexahydrocyclopropa[f]indazol-3-yl)-1H-indol-6-yl)-2-(4-((1-(5-(2,4-dioxotetrahydropyrimidin-1(2H)-yl)pyridin-2-yl)piperidin-4-yl)methyl)piperazin-1-yl)-N-methylpropanamide] | degraded ITK in vivo | degraded ITK | 14 | –
2 | C[C@@H](C(=O)N(C)c1ccc2cc(-c3n[nH]c4c3CCC(C)(C)C4)[nH]c2c1)N1CCN(CC2CCN(c3ccc(C(=O)NC4CCC(=O)NC4=O)nc3)CC2)CC1 (stereo partly drawn) [Compound 7, 5-(4-((4-((S)-1-((2-(6,6-dimethyl-4,5,6,7-tetrahydro-1H-indazol-3-yl)-1H-indol-6-yl)(methyl)amino)-1-oxopropan-2-yl)piperazin-1-yl)methyl)piperidin-1-yl)-N-(2,6-dioxopiperidin-3-yl)picolinamide] | – | – | 100 | degraded ITK in vivo
3 | C[C@@]12Cc3[nH]nc(C(=O)Nc4cnn(CC5CN(C(=O)C6CN(C7CCN(c8ccc9c(c8)C(=O)N(C8CCC(=O)NC8=O)C9=O)CC7)C6)C5)c4)c3C[C@@H]1C2(F)F (stereo partly drawn) [Compound 42, (4aS,5aR)-N-(1-((1-(1-(1-(2-(2,6-dioxopiperidin-3-yl)-1,3-dioxoisoindolin-5-yl)piperidin-4-yl)azetidine-3-carbonyl)azetidin-3-yl)methyl)-1H-pyrazol-4-yl)-5,5-difluoro-5a-methyl-1,4,4a,5,5a,6-hexahydrocyclopropa[f]indazole-3-carboxamide] | – | – | 82 | –
4 | C[C@@H](C(=O)N(C)c1ccc2cc(-c3n[nH]c4c3CCC(C)(C)C4)[nH]c2c1)N1CCN(CC2CCN(c3ccc(N4CCC(=O)NC4=O)cn3)CC2)CC1 [Compound 11, (S)—N-(2-(6,6-dimethyl-4,5,6,7-tetrahydro-1H-indazol-3-yl)-1H-indol-6-yl)-2-(4-((1-(5-(2,4-dioxotetrahydropyrimidin-1(2H)-yl)pyridin-2-yl)piperidin-4-yl)methyl)piperazin-1-yl)-N-methylpropanamide] | degraded ITK in vivo | – | 116 | –
5 | C[C@@H](C(=O)N(C)c1ccc2cc(-c3n[nH]c4c3C[C@@H]3C(F)(F)[C@]3(C)C4)[nH]c2c1)N1CCN(CC2CCN(c3ccc(C(=O)NC4CCC(=O)NC4=O)nc3)CC2)CC1 (stereo partly drawn) [Compound 66, 5-(4-((4-((S)-1-((2-((4aS,5aR)-5,5-difluoro-5a-methyl-1,4,4a,5,5a,6-hexahydrocyclopropa[f]indazol-3-yl)-1H-indol-6-yl)(methyl)amino)-1-oxopropan-2-yl)piperazin-1-yl)methyl)piperidin-1-yl)-N-(2,6-dioxopiperidin-3-yl)picolinamide] | – | – | 42.7 | –
6 | C[C@@H](C(=O)N(C)c1ccc2cc(-c3n[nH]c4c3CCC(C)(C)C4)[nH]c2c1)N1CCN(C[C@H]2CCN(c3ccc4c(c3)n(C)c(=O)n4C3CCC(=O)NC3=O)C2)CC1 (stereo partly drawn) [Compound 5, (2S)—N-(2-(6,6-dimethyl-4,5,6,7-tetrahydro-1H-indazol-3-yl)-1H-indol-6-yl)-2-(4-(((3R)-1-(1-(2,6-dioxopiperidin-3-yl)-3-methyl-2-oxo-2,3-dihydro-1H-benzo[d]imidazol-5-yl)pyrrolidin-3-yl)methyl)piperazin-1-yl)-N-methylpropanamide] | degraded ITK in vivo | – | 97 | –
